Experimental data taken from PMC6150413 (Molecules : A Journal of Synthetic Chemistry and Natural …, 2017).
Read-outs that look alike come from different tables or passages of the source. Peptide text beside a SMILES is read from it.

What was measured:
E. coli ATCC 25922 = tested on: E. coli ATCC 25922
Protocol: (§1) The antimicrobial activities of VIP and its analogues were tested against S. aureus ATCC 25923 and E. coli ATCC 25922 according to the method reported by Wani et al. with slight modification. The final peptide concentrations ranged from 0.5 to 256 μM. The tests were performed in triplicate using 4 replicates for each experiment. In addition, S. aureus ATCC 25923 and E. coli ATCC 25922 (2 × 10^6 CFU/mL) were treated with natural VIP and VIP8 at MIC for 2 h. […] The haemolytic activity of VIP and VIP derivatives were measured using porcine erythrocytes according to previous method. MTT (3-[4,5 dimethylthiozol-2-yl]-2,5-diphenyltetrazolium bromide) was used to determine the cytotoxicity of VIP and its analogue on porcine intestinal epithelial cells IPEC-J2. Stable experiments were conducted with reference to the literature with slightly changes. First, the pH of the mediums was adjusted to acidic (pH 4.0, pH 5.0, and pH 6.0) and basic (pH 8.0, pH 9.0, and pH 10.0) conditions. To investigate the effects of ion strength, the bacterial mediums were supplemented with different concentrations of NaCl (20 mM, 60 mM, and 180 mM) or MgCl2 (1 mM, 25 mM, and 50 mM). Then, bacteria were incubated with VIP, VIP analogues 2 and 8, respectively. After 3 h of incubation, bacterial viability was measured with a Synergy HT multimode reader (BioTek, Winooski, VT, USA) at 600 nm.
(§2) Both the agar diffusion test and modified broth microdilution method were used to evaluate the antimicrobial activity of recombinant expressed VIP8. For the Oxford cup agar diffusion, the sample was added to an Oxford cup, which was then placed on a Mueller-Hinton agar plate containing 1 × 10^5 colony-forming units of S. aureus […]. Chemically-synthesized VIP8 and ampicillin were used as the positive control. The minimal inhibition concentration was determined by the method reported by Wani et al..

S. aureus ATCC 25923 = tested on: S. aureus ATCC 25923
Protocol: as §1, §2

[1] = E. coli ATCC 25922, peptide 0.5 to 256 μM, triplicate, 4 replicates each, Table 2
[2] = S. aureus ATCC 25923, peptide 0.5 to 256 μM, triplicate, 4 replicates each, Table 2

| Compound | MBC (minimum bactericidal concentration) (E. coli ATCC 25922; ATCC 25922, 2 h) | MIC (minimum inhibitory concentration) (E. coli ATCC 25922; ATCC 25922, 2 h) | MBC (minimum bactericidal concentration) (S. aureus ATCC 25923; ATCC 25923, 2 h) | MIC (minimum inhibitory concentration) (S. aureus ATCC 25923; ATCC 25923, 2 h) | MBC (minimum bactericidal concentration) (E. coli ATCC 25922; [1]) | MIC (minimum inhibitory concentration) (E. coli ATCC 25922; [1]) | MBC (minimum bactericidal concentration) (S. aureus ATCC 25923; [2]) | MIC (minimum inhibitory concentration) (S. aureus ATCC 25923; [2]) | MIC (minimal inhibitory concentration) (E. coli ATCC 25922; ATCC 25922, 2 h) | MIC (minimal inhibitory concentration) (S. aureus ATCC 25923; ATCC 25923, 2 h) | Cytotoxicity (in words) (3T3-L1 cells) |
| --- | --- | --- | --- | --- | --- | --- | --- | --- | --- | --- | --- |
| CC[C@H](C)[C@H](NC(=O)[C@H](C)NC(=O)[C@H](C)NC(=O)[C@H](CC(C)C)NC(=O)[C@H](Cc1ccc(O)cc1)NC(=O)[C@H](CCCNC(=N)N)NC(=O)[C@H](CCCNC(=N)N)NC(=O)[C@@H](NC(=O)[C@H](C)NC(=O)[C@H](CC(C)C)NC(=O)[C@H](CCC(N)=O)NC(=O)[C@H](CCCNC(=N)N)NC(=O)[C@H](CCCNC(=N)N)NC(=O)[C@H](CC(C)C)NC(=O)[C@H](CCCNC(=N)N)NC(=O)[C@@H](NC(=O)[C@H](Cc1ccc(O)cc1)NC(=O)[C@H](CC(N)=O)NC(=O)[C@H](C)NC(=O)[C@@H](NC(=O)[C@H](Cc1ccccc1)NC(=O)[C@@H](NC(=O)[C@H](C)NC(=O)[C@H](CC(=O)O)NC(=O)[C@H](CO)NC(=O)[C@@H](N)Cc1c[nH]cn1)C(C)C)[C@@H](C)O)[C@@H](C)O)C(C)C)C(=O)N[C@@H](CC(C)C)C(=O)NCC(=O)N[C@@H](CCCNC(=N)N)C(=O)N[C@@H](CCCNC(=N)N)C(=O)O [VIP7] (H-HSDAVFTANYTRLRRQLAVRRYLAAILGRR-OH) | 8 µM | 8 µM | 32 µM | 16 µM | – | – | – | – | – | – | – |
| CC[C@H](C)[C@H](NC(=O)[C@H](CO)NC(=O)[C@H](CC(N)=O)NC(=O)[C@H](CC(C)C)NC(=O)[C@H](CO)NC(=O)[C@H](CCCCN)NC(=O)[C@H](CCCCN)NC(=O)[C@@H](NC(=O)[C@H](C)NC(=O)[C@H](CCSC)NC(=O)[C@H](CCC(N)=O)NC(=O)[C@H](CCCCN)NC(=O)[C@H](CCCNC(=N)N)NC(=O)[C@H](CC(C)C)NC(=O)[C@H](CCCNC(=N)N)NC(=O)[C@@H](NC(=O)[C@H](CO)NC(=O)[C@H](CC(N)=O)NC(=O)[C@H](CC(=O)O)NC(=O)[C@@H](NC(=O)[C@H](Cc1ccccc1)NC(=O)[C@@H](NC(=O)[C@H](C)NC(=O)[C@H](CC(=O)O)NC(=O)[C@H](CO)NC(=O)[C@@H](N)Cc1c[nH]cn1)C(C)C)[C@@H](C)O)[C@@H](C)O)C(C)C)C(=O)N[C@@H](CC(C)C)C(=O)N[C@@H](CC(N)=O)C(=O)O [VIP3] (H-HSDAVFTDNSTRLRKQMAVKKSLNSILN-OH) | – | – | – | – | >256 µM | >256 µM | >256 µM | >256 µM | – | – | – |
| CC[C@H](C)[C@H](NC(=O)CNC(=O)[C@H](CCC(=O)O)NC(=O)[C@H](CO)NC(=O)[C@@H](NC(=O)[C@H](CCCNC(=N)N)NC(=O)[C@H](CCCCN)NC(=O)[C@H](CCCCN)NC(=O)[C@H](C)NC(=O)[C@H](CO)NC(=O)[C@H](CC(N)=O)NC(=O)[C@H](CCC(=O)O)NC(=O)[C@H](CC(C)C)NC(=O)[C@H](CCCCN)NC(=O)[C@H](CCCCN)NC(=O)[C@H](C)NC(=O)[C@@H](NC(=O)[C@H](CCCCN)NC(=O)[C@H](CO)NC(=O)[C@H](CC(C)C)NC(=O)[C@H](Cc1c[nH]c2ccccc12)NC(=O)[C@@H](N)CO)[C@@H](C)O)[C@@H](C)CC)C(=O)N[C@@H](C)C(=O)N[C@H](C(=O)N[C@@H](C)C(=O)N[C@H](C(=O)N[C@@H](CCC(N)=O)C(=O)NCC(=O)NCC(=O)N1CCC[C@H]1C(=O)N[C@@H](CCCNC(=N)N)C(=O)O)[C@@H](C)CC)[C@@H](C)CC [Cecropin P1, reference compound] (H-SWLSKTAKKLENSAKKRISEGIAIAIQGGPR-OH) | 4 µM | 2 µM | 8 µM | 8 µM | – | – | – | – | 2 µM | 8 µM | – |
| CC[C@H](C)[C@H](NC(=O)[C@H](CO)NC(=O)[C@H](CC(N)=O)NC(=O)[C@H](CC(C)C)NC(=O)[C@H](CO)NC(=O)[C@H](CCCCN)NC(=O)[C@H](CCCCN)NC(=O)[C@@H](NC(=O)[C@H](C)NC(=O)[C@H](CCSC)NC(=O)[C@H](CCC(N)=O)NC(=O)[C@H](CCCCN)NC(=O)[C@H](CCCNC(=N)N)NC(=O)[C@H](CC(C)C)NC(=O)[C@H](CCCNC(=N)N)NC(=O)[C@@H](NC(=O)[C@H](CO)NC(=O)[C@H](CC(N)=O)NC(=O)[C@H](CC(=O)O)NC(=O)[C@@H](NC(=O)[C@H](Cc1ccccc1)NC(=O)[C@@H](NC(=O)[C@H](C)NC(=O)[C@H](CC(=O)O)NC(=O)[C@H](CO)NC(=O)[C@@H](N)Cc1c[nH]cn1)C(C)C)[C@@H](C)O)[C@@H](C)O)C(C)C)C(=O)N[C@@H](CC(C)C)C(=O)N[C@H](C(=O)O)[C@@H](C)O [VIP6] (H-HSDAVFTDNSTRLRKQMAVKKSLNSILT-OH) | >256 µM | >256 µM | >256 µM | >256 µM | – | – | – | – | – | – | – |
| CC[C@H](C)[C@H](NC(=O)[C@H](CO)NC(=O)[C@H](CC(N)=O)NC(=O)[C@H](CC(C)C)NC(=O)[C@H](Cc1ccc(O)cc1)NC(=O)[C@H](CCCCN)NC(=O)[C@H](CCCCN)NC(=O)[C@@H](NC(=O)[C@H](C)NC(=O)[C@H](CCSC)NC(=O)[C@H](CCC(N)=O)NC(=O)[C@H](CCCCN)NC(=O)[C@H](CCCNC(=N)N)NC(=O)[C@H](CC(C)C)NC(=O)[C@H](CCCNC(=N)N)NC(=O)[C@@H](NC(=O)[C@H](Cc1ccc(O)cc1)NC(=O)[C@H](CC(N)=O)NC(=O)[C@H](CCCCN)NC(=O)[C@@H](NC(=O)[C@H](Cc1ccccc1)NC(=O)[C@@H](NC(=O)[C@H](C)NC(=O)[C@H](CCCCN)NC(=O)[C@H](CO)NC(=O)[C@@H](N)Cc1c[nH]cn1)C(C)C)[C@@H](C)O)[C@@H](C)O)C(C)C)C(=O)N[C@@H](CC(C)C)C(=O)N[C@@H](CC(N)=O)C(=O)O [VIP2] (H-HSKAVFTKNYTRLRKQMAVKKYLNSILN-OH) | 32 µM | 16 µM | 128 µM | 64 µM | – | – | – | – | – | – | no cytotoxicity |
| CC[C@H](C)[C@H](NC(=O)[C@H](CO)NC(=O)[C@H](CC(N)=O)NC(=O)[C@H](CC(C)C)NC(=O)[C@H](Cc1ccc(O)cc1)NC(=O)[C@H](CCCCN)NC(=O)[C@H](CCCCN)NC(=O)[C@@H](NC(=O)[C@H](C)NC(=O)[C@H](CCSC)NC(=O)[C@H](CCC(N)=O)NC(=O)[C@H](CCCCN)NC(=O)[C@H](CCCNC(=N)N)NC(=O)[C@H](CC(C)C)NC(=O)[C@H](CCCNC(=N)N)NC(=O)[C@@H](NC(=O)[C@H](Cc1ccc(O)cc1)NC(=O)[C@H](CC(N)=O)NC(=O)[C@H](CC(=O)O)NC(=O)[C@@H](NC(=O)[C@H](Cc1ccccc1)NC(=O)[C@@H](NC(=O)[C@H](C)NC(=O)[C@H](CC(=O)O)NC(=O)[C@H](CO)NC(=O)[C@@H](N)Cc1c[nH]cn1)C(C)C)[C@@H](C)O)[C@@H](C)O)C(C)C)C(=O)N[C@@H](CC(C)C)C(=O)N[C@H](C(=O)O)[C@@H](C)O [VIP4] (H-HSDAVFTDNYTRLRKQMAVKKYLNSILT-OH) | >256 µM | >256 µM | >256 µM | >256 µM | – | – | – | – | – | – | – |
| CC[C@H](C)[C@H](NC(=O)[C@H](CO)NC(=O)[C@H](CC(N)=O)NC(=O)[C@H](CC(C)C)NC(=O)[C@H](Cc1ccc(O)cc1)NC(=O)[C@H](CCCCN)NC(=O)[C@H](CCCCN)NC(=O)[C@@H](NC(=O)[C@H](C)NC(=O)[C@H](CCSC)NC(=O)[C@H](CCC(N)=O)NC(=O)[C@H](CCCCN)NC(=O)[C@H](CCCNC(=N)N)NC(=O)[C@H](CC(C)C)NC(=O)[C@H](CCCNC(=N)N)NC(=O)[C@@H](NC(=O)[C@H](Cc1ccc(O)cc1)NC(=O)[C@H](CC(N)=O)NC(=O)[C@H](CCCCN)NC(=O)[C@@H](NC(=O)[C@H](Cc1ccccc1)NC(=O)[C@@H](NC(=O)[C@H](C)NC(=O)[C@H](CCCCN)NC(=O)[C@H](CO)NC(=O)[C@@H](N)Cc1c[nH]cn1)C(C)C)[C@@H](C)O)[C@@H](C)O)C(C)C)C(=O)N[C@@H](CC(C)C)C(=O)N[C@H](C(=O)O)[C@@H](C)O [VIP5] (H-HSKAVFTKNYTRLRKQMAVKKYLNSILT-OH) | >256 µM | >256 µM | >256 µM | >256 µM | – | – | – | – | – | – | – |
